Test results published in ChEMBL document CHEMBL6120978, “Anticancer activity of salinomycin quaternary phosphonium salts” (Eur J Med Chem, 2025).
≈ marks a conversion by molar mass, not a printed value. Calls of active or inactive are those of the source. The rule behind the calls is not given here.

Key:
[1] = test system: Staphylococcus epidermidis; assay: Antimicrobial activity against Staphylococcus epidermidis ATCC 35984 incubated for 18 hrs by twofold microdilution method; assay type: functional
[2] = Selectivity index, ratio of IC50 for cytotoxicity against chinese hamster V79 cells to IC50 for cytotoxicity against human PC-3 cells; assay type: toxicity, cell-based; conditions: V79 cells versus PC-3 cells, read-out: Ratio IC50
[3] = Selectivity index, ratio of IC50 for cytotoxicity against chinese hamster V79 cells to IC50 for cytotoxicity against human A549 cells; assay type: toxicity, cell-based; conditions: V79 cells versus A549 cells, read-out: Ratio IC50
A549 [4] = assay: Effect on mitochondrial mass in human A549 cells assessed as increase in mean fluorescence intensity at IC50 incubated for 48 hrs by MitoTracker Green FM staining based flow cytometry analysis; assay type: functional, cell-based
MDA-MB-231 [5] = assay: Induction of apoptosis in human MDA-MB-231 cells assessed as necrotic cells at IC50 incubated for 72 hrs by Annexin V-FITC staining based flow cytometry analysis (reference value: 1.17 %); assay type: functional
[6] = Selectivity index, ratio of IC50 for cytotoxicity against human HaCaT cells to IC50 for cytotoxicity against human SW620 cells; assay type: toxicity, cell-based; conditions: HaCaT cells versus SW620 cells, read-out: Ratio IC50
Mitochondrial membrane [7] = assay: Induction of mitochondrial membrane potential loss in human A549 cells assessed as green fluorescence at IC50 incubated for 48 hrs MitoTracker Green FM staining based flow cytometry analysis (reference value: 8.93 %); assay type: cell membranes
A549 [8] = assay: Cytotoxicity against human A549 cells incubated for 72 hrs by MTT assay; assay type: functional, cell-based; conditions: A549, 72 h
[9] = Cytotoxicity against human HaCaT cells incubated for 72 hrs by MTT assay; assay type: toxicity, cell-based
Mitochondrial membrane [10] = assay: Induction of mitochondrial membrane potential loss in human MDA-MB-231 cells assessed as green fluorescence at IC50 incubated for 48 hrs MitoTracker Green FM staining based flow cytometry analysis (reference value: 8.86 %); assay type: cell membranes
MDA-MB-231 [11] = assay: Induction of apoptosis in human MDA-MB-231 cells assessed as late apoptotic cells at IC50 incubated for 72 hrs by Annexin V-FITC staining based flow cytometry analysis (reference value: 3.07 %); assay type: functional
A549 [12] = assay: Induction of apoptosis in human A549 cells assessed as early apoptotic cells at IC50 incubated for 72 hrs by Annexin V-FITC staining based flow cytometry analysis (reference value: 1.68 %); assay type: functional
A549 [13] = assay: Induction of cell cycle arrest in human A549 cells assessed as change in cell population at IC50 incubated for 24 hrs by propidium iodide staining based flow cytometry analysis; assay type: functional
SW-620 = assay: Cytotoxicity against human SW620 cells incubated for 72 hrs by MTT assay; assay type: functional, cell-based; conditions: SW-620, 72 h
A549 [14] = assay: Effect on mitochondrial function in human A549 cells assessed as change in mean fluorescence intensity at IC50 incubated for 48 hrs by MitoTracker Red CMXRos staining based flow cytometry analysis; assay type: functional, cell-based
A549 [15] = assay: Induction of apoptosis in human A549 cells assessed as late apoptotic cells at IC50 incubated for 72 hrs by Annexin V-FITC staining based flow cytometry analysis (reference value: 1.86 %); assay type: functional
Staphylococcus aureus [16] = assay: Antimicrobial activity against Staphylococcus aureus ATCC 25923 incubated for 18 hrs by twofold microdilution method; assay type: functional
Pseudomonas aeruginosa = assay: Antimicrobial activity against Pseudomonas aeruginosa ATCC 15442 incubated for 18 hrs by twofold microdilution method; assay type: functional
MDA-MB-231 [17] = assay: Cytotoxicity against human MDA-MB-231 cells incubated for 72 hrs by MTT assay; assay type: functional, cell-based; conditions: MDA-MB-231, 72 h
Mitochondrial membrane [18] = assay: Induction of mitochondrial membrane potential loss in human MDA-MB-231 cells assessed as red fluorescence at IC50 incubated for 48 hrs MitoTrackerRed CMXRos staining based flow cytometry analysis (reference value: 91.1 %); assay type: cell membranes
MDA-MB-231 [19] = assay: Induction of apoptosis in human MDA-MB-231 cells assessed as early apoptotic cells at IC50 incubated for 72 hrs by Annexin V-FITC staining based flow cytometry analysis (reference value: 4.23 %); assay type: functional
PC-3 = assay: Cytotoxicity against human PC-3 cells incubated for 72 hrs by MTT assay; assay type: functional, cell-based; conditions: PC-3, 72 h
[20] = Cytotoxicity against chinese hamster V79 cells incubated for 72 hrs by MTT assay; assay type: toxicity, cell-based, Cricetulus griseus
A549 [21] = assay: Induction of ROS generation of human A549 cells at IC50 incubated for 6 hrs by CellROX Green staining based spectrofluorometer analysis; assay type: functional, cell-based
[22] = Selectivity index, ratio of IC50 for cytotoxicity against chinese hamster V79 cells to IC50 for cytotoxicity against human SW620 cells; assay type: toxicity, cell-based; conditions: V79 cells versus SW620 cells, read-out: Ratio IC50
Mitochondrial membrane [23] = assay: Induction of mitochondrial membrane potential loss in human A549 cells assessed as red fluorescence at IC50 incubated for 48 hrs MitoTrackerRed CMXRos staining based flow cytometry analysis (reference value: 91.1 %); assay type: cell membranes
[24] = Selectivity index, ratio of IC50 for cytotoxicity against human HaCaT cells to IC50 for cytotoxicity against human SW480 cells; assay type: toxicity, cell-based; conditions: HaCaT cells versus SW480 cells, read-out: Ratio IC50
[25] = Selectivity index, ratio of IC50 for cytotoxicity against human HaCaT cells to IC50 for cytotoxicity against human A549 cells; assay type: toxicity, cell-based; conditions: HaCaT cells versus A549 cells, read-out: Ratio IC50
[26] = test system: Staphylococcus epidermidis; assay: Antimicrobial activity against Staphylococcus epidermidis ATCC 12228 incubated for 18 hrs by twofold microdilution method; assay type: functional
MDA-MB-231 [27] = assay: Induction of ROS generation of human MDA-MB-231 cells at IC50 incubated for 6 hrs by CellROX Green staining based spectrofluorometer analysis; assay type: functional, cell-based
SW480 = assay: Cytotoxicity against human SW480 cells incubated for 72 hrs by MTT assay; assay type: functional, cell-based; conditions: SW480, 72 h
Staphylococcus aureus [28] = assay: Antimicrobial activity against Staphylococcus aureus ATCC 29213 incubated for 18 hrs by twofold microdilution method; assay type: functional
[29] = Selectivity index, ratio of IC50 for cytotoxicity against human HaCaT cells to IC50 for cytotoxicity against human PC-3 cells; assay type: toxicity, cell-based; conditions: HaCaT cells versus PC-3 cells, read-out: Ratio IC50
A549 [30] = assay: Induction of apoptosis in human A549 cells assessed as necrotic cells at IC50 incubated for 72 hrs by Annexin V-FITC staining based flow cytometry analysis (reference value: 0.97 %); assay type: functional
MDA-MB-231 [31] = assay: Effect on mitochondrial mass in human MDA-MB-231 cells assessed as increase in mean fluorescence intensity at IC50 incubated for 48 hrs by MitoTracker Green FM staining based flow cytometry analysis; assay type: functional, cell-based
Staphylococcus aureus [32] = assay: Antimicrobial activity against Staphylococcus aureus ATCC 6538 incubated for 18 hrs by twofold microdilution method; assay type: functional
[33] = Selectivity index, ratio of IC50 for cytotoxicity against human HaCaT cells to IC50 for cytotoxicity against human MDA-MB-231 cells; assay type: toxicity, cell-based; conditions: HaCaT cells versus MDA-MB-231 cells, read-out: Ratio IC50
[34] = Selectivity index, ratio of IC50 for cytotoxicity against chinese hamster V79 cells to IC50 for cytotoxicity against human SW480 cells; assay type: toxicity, cell-based; conditions: V79 cells versus SW480 cells, read-out: Ratio IC50
[35] = Selectivity index, ratio of IC50 for cytotoxicity against chinese hamster V79 cells to IC50 for cytotoxicity against human MDA-MB-231 cells; assay type: toxicity, cell-based; conditions: V79 cells versus MDA-MB-231 cells, read-out: Ratio IC50
A549 [36] = assay: Induction of apoptosis in human A549 cells assessed as viable cells at IC50 incubated for 72 hrs by Annexin V-FITC staining based flow cytometry analysis (reference value: 95.49 %); assay type: functional
MDA-MB-231 [37] = assay: Induction of apoptosis in human MDA-MB-231 cells assessed as viable cells at IC50 incubated for 72 hrs by Annexin V-FITC staining based flow cytometry analysis (reference value: 91.53 %); assay type: functional
Staphylococcus aureus [38] = assay: Antimicrobial activity against Staphylococcus aureus NCTC 4163 incubated for 18 hrs by twofold microdilution method; assay type: functional
Escherichia coli = assay: Antimicrobial activity against Escherichia coli ATCC 25922 incubated for 18 hrs by twofold microdilution method; assay type: functional

CC[C@@H](C(=O)[C@@H](C)[C@@H](O)[C@H](C)[C@@H]1O[C@@H]([C@@H](CC)C(=O)OCc2ccccc2)CC[C@@H]1C)[C@H]1O[C@]2(C=C[C@@H](O)[C@]3(CC[C@@](C)([C@H]4CC[C@](O)(CC)[C@H](C)O4)O3)O2)[C@H](C)C[C@@H]1C
MIC [1]: > 256 µg/mL | selectivity ratio [2]: 0.7 | selectivity ratio [3]: 0.8 | Activity (A549 [4]): Active; Slight Increase In Mfi Is Observed | Activity (MDA-MB-231 [5]): 2.17% | selectivity ratio [6]: 1 | Activity (Mitochondrial membrane [7]): 25.5% | IC50 (A549 [8]): 7.52 µM | IC50 at 72 h [9]: 8 µM | Activity (Mitochondrial membrane [10]): 19.6% | Activity (MDA-MB-231 [11]): 7.41% | Activity (A549 [12]): 10.57% | Activity (A549 [13]): inactive | IC50 (SW-620): 7.77 µM | Activity (A549 [14]): inactive | Activity (A549 [15]): 2.76% | MIC (Staphylococcus aureus [16]): 64 µg/mL (≈ 76.1 µM) | MIC (Pseudomonas aeruginosa): > 256 µg/mL | IC50 (MDA-MB-231 [17]): 16.5 µM | Activity (Mitochondrial membrane [18]): 79.7% | Activity (MDA-MB-231 [19]): 6.5% | IC50 (PC-3): 8.79 µM | IC50 at 72 h [20]: 5.83 µM | Activity (A549 [21]): Active; Slight Insignificant Increase In Ros Level Was Observed | selectivity ratio [22]: 0.8 | Activity (Mitochondrial membrane [23]): 74.5% | selectivity ratio [24]: 2.3 | selectivity ratio [25]: 1.1 | MIC [26]: 64 µg/mL (≈ 76.1 µM) | Activity (MDA-MB-231 [27]): Active; Slight Insignificant Increase In Ros Level Was Observed | IC50 (SW480): 3.48 µM | MIC (Staphylococcus aureus [28]): 64 µg/mL (≈ 76.1 µM) | selectivity ratio [29]: 0.9 | Activity (A549 [30]): 2.02% | Activity (MDA-MB-231 [31]): Active; Slight Increase In Mfi Is Observed | MIC (Staphylococcus aureus [32]): 32 µg/mL (≈ 38 µM) | selectivity ratio [33]: 0.5 | selectivity ratio [34]: 1.7 | selectivity ratio [35]: 0.3 | Activity (A549 [36]): 84.65% | Activity (MDA-MB-231 [37]): 83.92% | MIC (Staphylococcus aureus [38]): 64 µg/mL (≈ 76.1 µM) | MIC (Escherichia coli): > 256 µg/mL
